Test system: patients of Parkinson's disease experiencing motor fluctuations
Experiment: Pooled analysis of phase 2b and phase 3 clinical studies of istradefylline combined with L-DOPA: change from baseline to week 12 and CGI-I at week 12
Type: in vivo, human
Conditions: for Mean daily OFF time, change from baseline to week 12: 12 weeks; for Mean daily OFF time, change from baseline to week 12 / Mean daily ON time with dyskinesia, change from baseline to week 12 / Mean daily ON time with non-troublesome dyskinesia, change from baseline to week 12 / Mean daily ON time with troublesome dyskinesia, change from baseline to week 12 / Mean daily ON time without dyskinesia, change from baseline to week 12 / Mean daily ON time without troublesome dyskinesia, change from baseline to week 12 / Mean daily percentage of OFF time, change from baseline to week 12 / Mean daily percentage of ON time with dyskinesia, change from baseline to week 12 / Mean daily percentage of ON time with non-troublesome dyskinesia, change from baseline to week 12 / Mean daily percentage of ON time with troublesome dyskinesia, change from baseline to week 12 / Mean daily percentage of ON time without dyskinesia, change from baseline to week 12 / Mean daily percentage of ON time without troublesome dyskinesia, change from baseline to week 12 / Total UPDRS Parts I-III at ON state, change from baseline to week 12 / UPDRS Part I score, change from baseline to week 12 / UPDRS Part II score OFF state, change from baseline to week 12 / UPDRS Part II score ON state, change from baseline to week 12 / UPDRS Part III score at ON state, change from baseline to week 12 / UPDRS Part IV score, change from baseline to week 12: mean ± SD; for CGI-I Minimally improved, % of patients / CGI-I Minimally improved, number of patients / CGI-I Minimally worse, % of patients / CGI-I Minimally worse, number of patients / CGI-I Much improved, % of patients / CGI-I Much improved, number of patients / CGI-I Much worse, % of patients / CGI-I Much worse, number of patients / CGI-I No change, % of patients / CGI-I No change, number of patients / CGI-I Very much improved, % of patients / CGI-I Very much improved, number of patients / CGI-I Very much worse, % of patients / CGI-I Very much worse, number of patients: week 12
Protocol: A pooled analysis was performed for two clinical studies of istradefylline combined with L-DOPA previously conducted in Japan. Both studies were performed according to the principles of the Declaration of Helsinki and were identically designed for 12-week, multicenter, randomized, double-blind, placebo-controlled, and parallel-group studies approved by the relevant institutional review boards of each center [(i) Mizuno Y, Kondo T. Adenosine A2A receptor antagonist istradefylline reduces daily OFF time in Parkinson's disease. Mov Disord 2013; 28: 1138-41, and (ii) Mizuno Y, Hasegawa K, Kondo T, et al. Clinical efficacy of istradefylline (KW-6002) in Parkinson's disease: a randomized, controlled study. Mov Disord 2010; 25(10): 1437-43)]. Both studies were registered in ClinicalTrials.gov (NCT00455507 [phase 2b] and NCT00955526 [phase 3]). Both studies enrolled patients of Parkinson's disease who were experiencing motor fluctuations.
Key inclusion criteria included age 20 years, stages 2-4 (OFF state) based on the Modified Hoehn and Yahr (mH&Y) scale, stable treatment regimen of antiparkinsonian drugs, and motor fluctuations with an OFF time of 2 hours or longer per day. Key exclusion criteria included history of surgical operation for Parkinson's disease, cognitive impairment, and pregnancy. The study protocols were approved by the institutional review boards at all participating study sites, and written informed consent was obtained from all patients prior to participation.
In both studies, eligible subjects were randomized to one of three groups: 12-week istradefylline 20 mg/day group, 12-week istradefylline 40 mg/day group, and 12-week placebo group. The subjects attended site visits at weeks 2, 4, 8, and 12 after randomization, and submitted patient diaries covering the 7-day period prior to each visit. The full analysis set included subjects who received at least one dose of study drug and completed at least one set of patient diaries.
The primary outcomes were changes in OFF time (hours/day) from baseline to 12 weeks obtained from the patient diaries, which were compared between the placebo group and the istradefylline group. Other outcomes included changes (%) in daily OFF time, changes in ON time without troublesome dyskinesia (“Good” ON time) (Hauser RA, Deckers F, Lehert P. Parkinson's disease home diary: further validation and implications for clinical trials. Mov Disord 2004; 19(12): 1409-13), (which was the summation of ON time without dyskinesia and ON time with non-troublesome dyskinesia), UPDRS parts I-IV score, and changes in Clinical Global Impressions-Improvement (CGI-I) score from baseline to 12 weeks. The varying from baseline values, and the treatment effect were determined as a difference in mean change between the placebo group and the istradefylline group during the follow up period.
Baseline data were summarized for all and respective treatment groups (placebo and istradefylline: 20 mg or 40 mg). Continuous variables were expressed as mean and standard deviation (SD), whereas categorical variables were expressed as proportions. The following statistical analyses were performed for patients without any missing data (listwise deletion or complete case analysis).

[1] = 20 mg/day, listed as Istradefylline
[2] = 40 mg/day, listed as Istradefylline

## CCn1c(=O)c2c(nc(/C=C/c3ccc(OC)c(OC)c3)n2C)n(CC)c1=O [istradefylline]
20 mg/day, N = 235
  Mean daily OFF time, change from baseline to week 12: significant reductions
20 mg/day, N = 235, listed as Istradefylline
  Mean daily OFF time, change from baseline to week 12: -1.23 ± 1.97 h
20 mg/day
  Mean daily ON time with dyskinesia, change from baseline to week 12: 0.19 ± 1.53 h
  Mean daily ON time with non-troublesome dyskinesia, change from baseline to week 12: significantly increased
  Mean daily ON time with troublesome dyskinesia, change from baseline to week 12: 0.03 ± 1.33 h
  Mean daily ON time without dyskinesia, change from baseline to week 12: significantly increased
  Mean daily ON time without troublesome dyskinesia, change from baseline to week 12: significantly increased
  Mean daily percentage of OFF time, change from baseline to week 12: significant reductions
  Mean daily percentage of ON time with dyskinesia, change from baseline to week 12: 1.32 ± 9.36%
  Mean daily percentage of ON time with non-troublesome dyskinesia, change from baseline to week 12: significantly increased
  Mean daily percentage of ON time with troublesome dyskinesia, change from baseline to week 12: 0.15 ± 8.12%
  Mean daily percentage of ON time without dyskinesia, change from baseline to week 12: significantly increased
  Mean daily percentage of ON time without troublesome dyskinesia, change from baseline to week 12: significantly increased
  Total UPDRS Parts I-III at ON state, change from baseline to week 12: significant reductions
  UPDRS Part I score, change from baseline to week 12: −0.2 ± 0.9
  UPDRS Part II score OFF state, change from baseline to week 12: −1.8 ± 4.1
  UPDRS Part II score ON state, change from baseline to week 12: −0.5 ± 2.3
  UPDRS Part III score at ON state, change from baseline to week 12: significant reductions
  UPDRS Part IV score, change from baseline to week 12: −0.1 ± 1.6
  CGI-I Minimally improved, % of patients: (36.2) %
  CGI-I Minimally improved, number of patients: 85 number of patients
  CGI-I Minimally worse, % of patients: (5.1) %
  CGI-I Minimally worse, number of patients: 12 number of patients
  CGI-I Much improved, % of patients: (18.3) %
  CGI-I Much improved, number of patients: 43 number of patients
  CGI-I Much worse, % of patients: (1.3) %
  CGI-I Much worse, number of patients: 3 number of patients
  CGI-I No change, % of patients: (36.2) %
  CGI-I No change, number of patients: 85 number of patients
  CGI-I Very much improved, % of patients: (2.6) %
  CGI-I Very much improved, number of patients: 6 number of patients
  CGI-I Very much worse, % of patients: (0.4) %
  CGI-I Very much worse, number of patients: 1 number of patients
[1]
  Mean daily ON time with non-troublesome dyskinesia, change from baseline to week 12: 0.16 ± 1.56 h
  Mean daily ON time without dyskinesia, change from baseline to week 12: 1.03 ± 2.20 h
  Mean daily ON time without troublesome dyskinesia, change from baseline to week 12: 1.19 ± 2.44 h
  Mean daily percentage of OFF time, change from baseline to week 12: −7.62 ± 12.62%
  Mean daily percentage of ON time with non-troublesome dyskinesia, change from baseline to week 12: 1.17 ± 9.54%
  Mean daily percentage of ON time without dyskinesia, change from baseline to week 12: 6.28 ± 13.68%
  Mean daily percentage of ON time without troublesome dyskinesia, change from baseline to week 12: 7.45 ± 14.95%
  Total UPDRS Parts I-III at ON state, change from baseline to week 12: −5.8 ± 8.6
  UPDRS Part III score at ON state, change from baseline to week 12: −5.1 ± 7.2
40 mg/day, N = 247
  Mean daily OFF time, change from baseline to week 12: significant reductions
40 mg/day, N = 247, listed as Istradefylline
  Mean daily OFF time, change from baseline to week 12: -1.27 ± 2.42 h
40 mg/day
  Mean daily ON time with dyskinesia, change from baseline to week 12: 0.20 ± 1.93 h
  Mean daily ON time with non-troublesome dyskinesia, change from baseline to week 12: significantly increased
  Mean daily ON time with troublesome dyskinesia, change from baseline to week 12: 0.06 ± 1.13 h
  Mean daily ON time without dyskinesia, change from baseline to week 12: significantly increased
  Mean daily ON time without troublesome dyskinesia, change from baseline to week 12: significantly increased
  Mean daily percentage of OFF time, change from baseline to week 12: significant reductions
  Mean daily percentage of ON time with dyskinesia, change from baseline to week 12: 1.28 ± 11.40%
  Mean daily percentage of ON time with non-troublesome dyskinesia, change from baseline to week 12: significantly increased
  Mean daily percentage of ON time with troublesome dyskinesia, change from baseline to week 12: 0.36 ± 6.44%
  Mean daily percentage of ON time without dyskinesia, change from baseline to week 12: significantly increased
  Mean daily percentage of ON time without troublesome dyskinesia, change from baseline to week 12: significantly increased
  Total UPDRS Parts I-III at ON state, change from baseline to week 12: significant reductions
  UPDRS Part I score, change from baseline to week 12: −0.1 ± 1.0
  UPDRS Part II score OFF state, change from baseline to week 12: significant reductions
  UPDRS Part II score ON state, change from baseline to week 12: −0.7 ± 2.2
  UPDRS Part III score at ON state, change from baseline to week 12: significant reductions
  UPDRS Part IV score, change from baseline to week 12: significant reductions
  CGI-I Minimally improved, % of patients: (32.5) %
  CGI-I Minimally improved, number of patients: 80 number of patients
  CGI-I Minimally worse, % of patients: (6.5) %
  CGI-I Minimally worse, number of patients: 16 number of patients
  CGI-I Much improved, % of patients: (21.5) %
  CGI-I Much improved, number of patients: 53 number of patients
  CGI-I Much worse, % of patients: (0.8) %
  CGI-I Much worse, number of patients: 2 number of patients
  CGI-I No change, % of patients: (34.1) %
  CGI-I No change, number of patients: 84 number of patients
  CGI-I Very much improved, % of patients: (4.5) %
  CGI-I Very much improved, number of patients: 11 number of patients
  CGI-I Very much worse, % of patients: (0.0) %
  CGI-I Very much worse, number of patients: 0 number of patients
[2]
  Mean daily ON time with non-troublesome dyskinesia, change from baseline to week 12: 0.15 ± 1.36 h
  Mean daily ON time without dyskinesia, change from baseline to week 12: 0.99 ± 2.86 h
  Mean daily ON time without troublesome dyskinesia, change from baseline to week 12: 1.13 ± 2.65 h
  Mean daily percentage of OFF time, change from baseline to week 12: −7.76 ± 15.02%
  Mean daily percentage of ON time with non-troublesome dyskinesia, change from baseline to week 12: 0.92 ± 8.26%
  Mean daily percentage of ON time without dyskinesia, change from baseline to week 12: 6.46 ± 17.10%
  Mean daily percentage of ON time without troublesome dyskinesia, change from baseline to week 12: 7.39 ± 15.73%
  Total UPDRS Parts I-III at ON state, change from baseline to week 12: −6.3 ± 8.1
  UPDRS Part II score OFF state, change from baseline to week 12: −2.0 ± 3.8
  UPDRS Part III score at ON state, change from baseline to week 12: −5.5 ± 6.6
  UPDRS Part IV score, change from baseline to week 12: −0.5 ± 1.6

From patent publication US12527800B2, “Therapeutic agent for Parkinson's disease” (KYOWA KIRIN CO., LTD., priority 2019, dated 2026)
